These results are taken from patent publication US4401677A, “Enkephalinase inhibitors” (E. R. Squibb & Sons, Inc., priority 1981, dated 1983).

For one experiment, the target named is T1, enkephalinase purified from membrane fractions of sheep corpus striatum (Ovis aries, UniProt A0ACI6S0K5).
T1 sequence (A0ACI6S0K5 2-750): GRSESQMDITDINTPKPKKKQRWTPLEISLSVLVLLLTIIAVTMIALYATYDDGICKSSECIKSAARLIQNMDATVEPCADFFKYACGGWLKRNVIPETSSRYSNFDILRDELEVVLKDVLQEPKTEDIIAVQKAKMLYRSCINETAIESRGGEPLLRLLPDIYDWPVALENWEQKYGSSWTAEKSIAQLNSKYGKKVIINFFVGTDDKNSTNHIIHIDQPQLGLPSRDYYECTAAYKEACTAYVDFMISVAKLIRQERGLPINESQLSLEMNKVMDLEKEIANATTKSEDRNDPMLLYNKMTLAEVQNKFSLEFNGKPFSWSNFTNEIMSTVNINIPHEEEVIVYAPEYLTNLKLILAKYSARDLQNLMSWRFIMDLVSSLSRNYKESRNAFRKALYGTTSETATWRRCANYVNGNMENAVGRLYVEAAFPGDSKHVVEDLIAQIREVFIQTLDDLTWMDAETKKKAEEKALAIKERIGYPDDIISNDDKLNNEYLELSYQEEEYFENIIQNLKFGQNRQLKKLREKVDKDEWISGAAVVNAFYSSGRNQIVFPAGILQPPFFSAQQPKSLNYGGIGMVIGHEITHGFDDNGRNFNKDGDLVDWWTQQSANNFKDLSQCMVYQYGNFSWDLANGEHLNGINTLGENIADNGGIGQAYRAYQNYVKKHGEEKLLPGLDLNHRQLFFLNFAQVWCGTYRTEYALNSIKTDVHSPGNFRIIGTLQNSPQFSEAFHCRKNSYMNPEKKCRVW
The experiment is described as follows: inhibition of cleavage of [^3 H-Tyr^1, Leu^5 ]-enkephalin by purified enkephalinase (radiochromatographic method). The experiment is classed as biochemical. Conditions: 70 nM substrate, pH 7.0, 15 minutes at 37°; called I50. Here is the method:
Frozen sheep striatia were homogenized in 20 volumes of 50 mM Tris (i.e., 2-amino-2-hydroxymethyl-1,3-propanediol)-hydrochloric acid buffer, pH 7.7, and centrifuged at 37,000×g. for 15 minutes. The sedimented material (membrane fraction), after being washed three times by resuspension and recentrifugation, was solubilized by stirring with half the original volume of 50 mM Tris-hydrochloric acid buffer, pH 7.7, containing 1% Triton X-100 (i.e., polyethylene glycol p-isooctylphenyl ether) nonionic detergent, followed by centrifugation for 2 hours at 37,000×g. […] Protein was eluted from the column with a one liter gradient of 0-0.4 M sodium chloride in the same buffer mixture, with 8.7 ml. fractions being collected.
Activity of the enzyme for purification and inhibitor studies was determined by the following radiochromatographic method. […] An aliquot of 0.01 ml. of acidified reaction mixture was spotted onto a Whatman LK 50 silica gel thin-layer chromatography plate along with the appropriate peptide standards. After development of the plate in a solvent composed of isopropanol:ethyl acetate:5% acetic acid (2:2:1), the spots corresponding to Tyr, Tyr-Gly, Tyr-Gly-Gly, and unreacted enkephalin (Tyr-Gly-Gly-Phe-Leu), as visualized with ninhydrin reaction, were scraped from the plate, and the incorporated radioactivity was counted in a liquid scintillation counter.
Broadly, the IC50 is the concentration at which inhibition is half-maximal. A low value points to higher potency. In the case of `CC(CS)C(=O)N[C@@H](Cc1ccc(O)c(O)c1)C(=O)O` (mixture of isomers) [Ex. 5, 3-Hydroxy-N-(DL-3-mercapto-2-methyl-1-oxopropyl)-L-tyrosine], the IC50 turned out to be 5 nM.

The compound `N=C(N)NCCC[C@H](NC(=O)C(CS)Cc1ccccc1)C(=O)O` (mixture of isomers) [Ex. 2, N-[DL-2-(Mercaptomethyl)-1-oxo-3-phenylpropyl]-L-arginine] showed a 50% inhibitory concentration (IC50) of 85 nM.

`CC(CS)C(=O)N[C@@H](Cc1c[nH]c2ccccc12)C(=O)O` (mixture of isomers) [Ex. 3, N-(DL-3-Mercapto-2-methyl-1-oxopropyl)-L-tryptophan] registered a concentration for half-maximal inhibition (IC50) of 5 nM.

The compound `CC(CS)C(=O)N[C@@H](CCCNC(=N)N)C(=O)O` (mixture of isomers) [Ex. 1, N-(DL-3-Mercapto-2-methyl-1-oxopropyl)-L-arginine] registered a concentration for half-maximal inhibition (IC50) of 150 nM.

On to `C[C@H](CS)C(=O)N[C@@H](Cc1ccc(O)c(O)c1)C(=O)O` [Ex. 6, 3-Hydroxy-N-(D-3-mercapto-2-methyl-1-oxopropyl)-L-tyrosine], for which the IC50 was determined as 2.5 nM.

In turn, `CC(CS)C(=O)N[C@@H](Cc1ccc(O)cc1)C(=O)O` (mixture of isomers) [Ex. 4, N-(DL-3-Mercapto-2-methyl-1-oxopropyl)-L-tyrosine] returned a concentration for half-maximal inhibition (IC50) of 2.5 nM.

Turning to `CC(C)CC(CS)C(=O)N[C@@H](CCCNC(=N)N)C(=O)O` (mixture of isomers) [Ex. 7, (±)-N^2-[2-(Mercaptomethyl)-4-methyl-1-oxopentyl]-L-arginine], half-maximal inhibition (IC50) required 30 nM.

The next experiment deals with enkephalinase.
Assay: not given
Conditions: cited from earlier work.
For the compound `O=C(O)CNC(=O)C(CS)Cc1ccccc1` (racemic) [thiorphan, [(DL-3-mercapto-2-benzylpropanoyl)]-glycine], the “inhibitor of enkephalinase in vitro” value was “inhibitor of enkephalinase in vitro in nanomolar concentration”.
